Source: ChEMBL document CHEMBL4196065, “Design and synthesis of new hybrids from 2-cyano-3,12-dioxooleana- 9-dien-28-oic acid and O2-(2,4-dinitrophenyl) diazeniumdiolate for intervention of drug-resistant lung cancer” (Eur J Med Chem, 2018)
Calls of active or inactive are those of the source. The rule behind the calls is not given here.

How the values were obtained:
[1] = Resistant factor, ratio of IC50 for human A549/TR cells to IC50 for human A549 cells; assay type: functional
A549 = test: cells; settings: Homo sapiens, A549, 72 h
Description: Antiproliferative activity against human A549 cells after 72 hrs by MTT assay

A549/TR [2] = test: Antiproliferative activity against human A549/TR cells after 72 hrs by MTT assay; assay type: functional, cell-based
A549/TR [3] = test: Antiproliferative activity against human A549/TR cells at 1 uM after 72 hrs by MTT assay; assay type: functional
A549/TR [4] = test: Induction of apoptosis in human A549/TR cells assessed as necrotic cells at 4.8 uM after 24 hrs by Annexin-V-FITC/propidium iodide staining-based flow cytometric analysis (reference value: 0.22%); assay type: functional
A549/TR [5] = test: Induction of apoptosis in human A549/TR cells assessed as necrotic cells at 2.4 uM after 24 hrs by Annexin-V-FITC/propidium iodide staining-based flow cytometric analysis (reference value: 0.22%); assay type: functional
A549/TR [6] = test: Cell cycle arrest in human A549/TR cells assessed as accumulation at G0/G1 phase at 2.4 uM after 24 hrs by propidium iodide/RNase-staining based flow cytometric analysis (reference value: 62.5%); assay type: functional
A549/TR [7] = test: Induction of apoptosis in human A549/TR cells assessed as late apoptotic cells at 2.4 uM after 24 hrs by Annexin-V-FITC/propidium iodide staining-based flow cytometric analysis (reference value: 1.24%); assay type: functional
A549/TR [8] = test: Cell cycle arrest in human A549/TR cells assessed as accumulation at G0/G1 phase at 4.8 uM after 24 hrs by propidium iodide/RNase-staining based flow cytometric analysis (reference value: 62.5%); assay type: functional
A549/TR [9] = test: Cell cycle arrest in human A549/TR cells assessed as accumulation at G2/M phase at 2.4 uM after 24 hrs by propidium iodide/RNase-staining based flow cytometric analysis (reference value: 24.7%); assay type: functional
A549/TR [10] = test: Downregulation of Lon expression in human A549/TR cells at 4.8 uM after 24 hrs by Western blot analysis; assay type: functional, cell-based
A549/TR [11] = test: Cell cycle arrest in human A549/TR cells assessed as accumulation at G0/G1 phase at 1.2 uM after 24 hrs by propidium iodide/RNase-staining based flow cytometric analysis (reference value: 62.5%); assay type: functional
A549/TR [12] = test: Induction of apoptosis in human A549/TR cells assessed as viable cells at 4.8 uM after 24 hrs by Annexin-V-FITC/propidium iodide staining-based flow cytometric analysis (reference value: 95.1%); assay type: functional; settings: read-out: Activity
A549/TR [13] = test: Induction of apoptosis in human A549/TR cells assessed as early apoptotic cells at 4.8 uM after 24 hrs by Annexin-V-FITC/propidium iodide staining-based flow cytometric analysis (reference value: 3.42%); assay type: functional
A549/TR [14] = test: Induction of apoptosis in human A549/TR cells assessed as late apoptotic cells at 4.8 uM after 24 hrs by Annexin-V-FITC/propidium iodide staining-based flow cytometric analysis (reference value: 1.24%); assay type: functional
A549/TR [15] = test: Induction of nitric oxide production in human A549/TR cells at 50 uM after 6 hrs by Griess assay; assay type: functional, cell-based
MRC5 [16] = test: Induction of nitric oxide production in human MRC5 cells at 50 uM after 6 hrs by Griess assay; assay type: cell-based; settings: mrc5, 6 h
A549/TR [17] = test: Induction of apoptosis in human A549/TR cells assessed as early apoptotic cells at 2.4 uM after 24 hrs by Annexin-V-FITC/propidium iodide staining-based flow cytometric analysis (reference value: 3.42%); assay type: functional
A549/TR [18] = test: Induction of apoptosis in human A549/TR cells assessed as viable cells at 2.4 uM after 24 hrs by Annexin-V-FITC/propidium iodide staining-based flow cytometric analysis (reference value: 95.1%); assay type: functional; settings: read-out: Activity
A549/TR [19] = test: Cell cycle arrest in human A549/TR cells assessed as accumulation at G2/M phase at 4.8 uM after 24 hrs by propidium iodide/RNase-staining based flow cytometric analysis (reference value: 24.7%); assay type: functional
A549/TR [20] = test: Induction of apoptosis in human A549/TR cells assessed as late apoptotic cells at 1.2 uM after 24 hrs by Annexin-V-FITC/propidium iodide staining-based flow cytometric analysis (reference value: 1.24%); assay type: functional
A549/TR [21] = test: Induction of apoptosis in human A549/TR cells assessed as early apoptotic cells at 1.2 uM after 24 hrs by Annexin-V-FITC/propidium iodide staining-based flow cytometric analysis (reference value: 3.42%); assay type: functional
A549/TR [22] = test: Induction of ROS generation in human A549/TR cells at 2.4 to 9.6 uM after 24 hrs by DCFH-DA dye-based flow cytometric analysis; assay type: functional, cell-based
A549/TR [23] = test: Cell cycle arrest in human A549/TR cells assessed as accumulation at G2/M phase at 1.2 uM after 24 hrs by propidium iodide/RNase-staining based flow cytometric analysis (reference value: 24.7%); assay type: functional
A549/TR [24] = test: Induction of apoptosis in human A549/TR cells assessed as necrotic cells at 1.2 uM after 24 hrs by Annexin-V-FITC/propidium iodide staining-based flow cytometric analysis (reference value: 0.22%); assay type: functional
A549/TR [25] = test: Induction of apoptosis in human A549/TR cells assessed as viable cells at 1.2 uM after 24 hrs by Annexin-V-FITC/propidium iodide staining-based flow cytometric analysis (reference value: 95.1%); assay type: functional; settings: read-out: Activity
A549/TR [26] = test: Growth inhibition of human A549/TR cells at 1 uM after 72 hrs in presence of ROS scavenger NAC by MTT assay; assay type: functional
A549/TR [27] = test: Induction of ROS generation in human A549/TR cells after 24 hrs by DCFH-DA dye-based flow cytometric analysis; assay type: functional, cell-based
A549/TR [28] = test: Induction of apoptosis in human A549/TR cells after 24 hrs by Annexin-V-FITC/propidium iodide staining-based flow cytometric analysis; assay type: functional, cell-based
[29] = Potency index, ratio of taxol IC50 to compound IC50 for antiproliferative activity against human A549/TR cells; assay type: functional
A549/TR [30] = test: Growth inhibition of human A549/TR cells at 1 uM after 72 hrs in presence of NO scavenger hemoglobin by MTT assay; assay type: functional
A549/TR [31] = test: Downregulation of Lon expression in human A549/TR cells after 24 hrs by Western blot analysis; assay type: functional, cell-based
A549/TR [32] = test: Cell cycle arrest in human A549/TR cells after 24 hrs by propidium iodide/RNase-staining based flow cytometric analysis; assay type: functional
A549/TR [33] = test: Growth inhibition of human A549/TR cells at 1 uM after 72 hrs in presence of GSTpi inhibitor etacrynic acid by MTT assay; assay type: functional
MRC5 [34] = test: Antiproliferative activity against human MRC5 cells after 72 hrs by MTT assay; assay type: cell-based; settings: MRC5, 72 h

Row | SMILES | Ratio IC50 [1] | IC50 (A549) [nM] | IC50 (A549/TR [2]) [nM] | Activity (A549/TR [3]) [%] | Activity (A549/TR [4]) [%] | Activity (A549/TR [5]) [%] | Activity (A549/TR [6]) [%] | Activity (A549/TR [7]) [%] | Activity (A549/TR [8]) [%] | Activity (A549/TR [9]) [%] | Activity (A549/TR [11]) [%] | viability at 4.8 µM (A549/TR [12]) [%] | Activity (A549/TR [13]) [%] | Activity (A549/TR [14]) [%] | Activity (A549/TR [15]) | Activity (MRC5 [16]) | Activity (A549/TR [17]) [%] | viability at 2.4 µM (A549/TR [18]) [%] | Activity (A549/TR [19]) [%] | Activity (A549/TR [20]) [%] | further results
1 | CC(=O)O[C@H]1C(=O)[C@@]2(C)[C@H]([C@H](OC(=O)c3ccccc3)[C@]3(O)C[C@H](OC(=O)[C@H](O)[C@@H](NC(=O)c4ccccc4)c4ccccc4)C(C)=C1C3(C)C)[C@]1(OC(C)=O)CO[C@@H]1C[C@@H]2O [PACLITAXEL] | 445 | 7 | 3110 |  |  |  |  |  |  |  |  |  |  |  |  |  |  |  |  |  | 
2 | CC1(C)CC[C@]2(C(=O)N3CCN(c4cc(O/N=[N+](\[O-])N5CCOCC5)c([N+](=O)[O-])cc4[N+](=O)[O-])CC3)CC[C@]3(C)[C@H](C(=O)C=C4[C@@]5(C)C=C(C#N)C(=O)C(C)(C)[C@@H]5CC[C@]43C)[C@@H]2C1 | 0.9 | 1080 | 941 | >50 |  |  |  |  |  |  |  |  |  |  |  |  |  |  |  |  | 
3 | CCOC(=O)N1CCN(/[N+]([O-])=N/Oc2ccc([N+](=O)[O-])cc2[N+](=O)[O-])CC1 | 0.9 | 2310 | 1990 |  | 1.04 | 0.37 | 54.4 | 1.94 | 47.7 | 32 | 65.3 | 87 | 7.76 | 4.19 | Active | Toxic | 5.63 | 92.1 | 38.7 | 2.38 | Activity (A549/TR [10]): Active; Activity (A549/TR [21]): 6.75%; Activity (A549/TR [22]): Active; Activity (A549/TR [23]): 24.5%; Activity (A549/TR [24]): 0.34%; viability at 1.2 µM (A549/TR [25]): 90.5%
4 | CN(CCO)/[N+]([O-])=N/Oc1cc(N2CCN(C(=O)[C@]34CCC(C)(C)C[C@H]3[C@H]3C(=O)C=C5[C@@]6(C)C=C(C#N)C(=O)C(C)(C)[C@@H]6CC[C@@]5(C)[C@]3(C)CC4)CC2)c([N+](=O)[O-])cc1[N+](=O)[O-] | 0.3 | 1070 | 349 | >50 | 3.15 | 2.78 | 47.9 | 14.4 | 39.4 | 38.9 | 61.3 | 59.7 | 15.8 | 21.4 | Active | Toxic | 12.8 | 70 | 48.3 | 3.09 | growth inhibition (GI) (A549/TR [26]): inactive; Activity (A549/TR [27]): Dose-dependent effect; Activity (A549/TR [28]): Dose-dependent effect; Ratio IC50 [29]: 10; growth inhibition (GI) (A549/TR [30]): inactive; Activity (A549/TR [31]): Dose-dependent effect; Activity (A549/TR [32]): Dose-dependent effect; Activity (A549/TR [21]): 5.11%; growth inhibition (GI) (A549/TR [33]): inactive; Activity (A549/TR [23]): 28.3%; IC50 (MRC5 [34]): 1600 nM; Activity (A549/TR [24]): 0.27%; viability at 1.2 µM (A549/TR [25]): 91.6%
5 | C[C@H](N)C(=O)OCCN(C)/[N+]([O-])=N/Oc1cc(N2CCN(C(=O)[C@]34CCC(C)(C)C[C@H]3[C@H]3C(=O)C=C5[C@@]6(C)C=C(C#N)C(=O)C(C)(C)[C@@H]6CC[C@@]5(C)[C@]3(C)CC4)CC2)c([N+](=O)[O-])cc1[N+](=O)[O-] | 0.7 | 1070 | 697 | >50 |  |  |  |  |  |  |  |  |  |  |  |  |  |  |  |  | 
6 | C[C@H](N)C(=O)OCCN(C)/[N+]([O-])=N/Oc1cc(NCCOC(=O)[C@]23CCC(C)(C)C[C@H]2[C@H]2C(=O)C=C4[C@@]5(C)C=C(C#N)C(=O)C(C)(C)[C@@H]5CC[C@@]4(C)[C@]2(C)CC3)c([N+](=O)[O-])cc1[N+](=O)[O-] | 0.8 | 1440 | 1090 | >50 |  |  |  |  |  |  |  |  |  |  |  |  |  |  |  |  | 
7 | CN(CCO)/[N+]([O-])=N/Oc1cc(NCCOC(=O)[C@]23CCC(C)(C)C[C@H]2[C@H]2C(=O)C=C4[C@@]5(C)C=C(C#N)C(=O)C(C)(C)[C@@H]5CC[C@@]4(C)[C@]2(C)CC3)c([N+](=O)[O-])cc1[N+](=O)[O-] | 0.6 | 1440 | 820 | >50 |  |  |  |  |  |  |  |  |  |  |  |  |  |  |  |  | 
8 | COC(=O)[C@]12CCC(C)(C)C[C@H]1[C@H]1C(=O)C=C3[C@@]4(C)C=C(C#N)C(=O)C(C)(C)[C@@H]4CC[C@@]3(C)[C@]1(C)CC2 [BARDOXOLONE METHYL] | 0.8 | 2070 | 1700 |  | 0.17 | 0.13 | 54.7 | 1.95 | 47.4 | 32.1 | 62.3 | 83.4 | 7.36 | 3.03 | inactive | Non-Toxic | 6.14 | 91.8 | 39.4 | 0.8 | Activity (A549/TR [10]): Active; Activity (A549/TR [21]): 4.06%; Activity (A549/TR [22]): Active; Activity (A549/TR [23]): 24.9%; Activity (A549/TR [24]): 0.14%; viability at 1.2 µM (A549/TR [25]): 94.9%
